Literature values in US9314429B2, “Rapidly dispersible dosage form of oxcarbazepine” (APRECIA PHARMACEUTICALS COMPANY, priority 2013, dated 2016).

water solubility: poorly water soluble
SMILES: NC(=O)N1c2ccccc2CC(=O)c2ccccc21 [OXC, 10,11-Dihydro-10-oxo-5H-dibenz[b,f]azepine-5-carboxamide]
